The values below come from ChEMBL document CHEMBL5705895, “Species comparison and pharmacological characterization of human, monkey, rat, and mouse TRPA1 channels” (J Pharmacol Exp Ther, 2012).

What all share (assay type): cell-based
In assay [1] the target is T1, Transient receptor potential cation channel subfamily A member 1 (Homo sapiens, UniProt O75762). Description: Antagonist activity at full length human TRPA1 transfected in HEK293F cells assessed as blockade of MO-induced TRPA1 channel activation by measuring Ca2+ influx in presence of 30 uM MO by FLIPR calcium assay.
T1 sequence (O75762 whole entry): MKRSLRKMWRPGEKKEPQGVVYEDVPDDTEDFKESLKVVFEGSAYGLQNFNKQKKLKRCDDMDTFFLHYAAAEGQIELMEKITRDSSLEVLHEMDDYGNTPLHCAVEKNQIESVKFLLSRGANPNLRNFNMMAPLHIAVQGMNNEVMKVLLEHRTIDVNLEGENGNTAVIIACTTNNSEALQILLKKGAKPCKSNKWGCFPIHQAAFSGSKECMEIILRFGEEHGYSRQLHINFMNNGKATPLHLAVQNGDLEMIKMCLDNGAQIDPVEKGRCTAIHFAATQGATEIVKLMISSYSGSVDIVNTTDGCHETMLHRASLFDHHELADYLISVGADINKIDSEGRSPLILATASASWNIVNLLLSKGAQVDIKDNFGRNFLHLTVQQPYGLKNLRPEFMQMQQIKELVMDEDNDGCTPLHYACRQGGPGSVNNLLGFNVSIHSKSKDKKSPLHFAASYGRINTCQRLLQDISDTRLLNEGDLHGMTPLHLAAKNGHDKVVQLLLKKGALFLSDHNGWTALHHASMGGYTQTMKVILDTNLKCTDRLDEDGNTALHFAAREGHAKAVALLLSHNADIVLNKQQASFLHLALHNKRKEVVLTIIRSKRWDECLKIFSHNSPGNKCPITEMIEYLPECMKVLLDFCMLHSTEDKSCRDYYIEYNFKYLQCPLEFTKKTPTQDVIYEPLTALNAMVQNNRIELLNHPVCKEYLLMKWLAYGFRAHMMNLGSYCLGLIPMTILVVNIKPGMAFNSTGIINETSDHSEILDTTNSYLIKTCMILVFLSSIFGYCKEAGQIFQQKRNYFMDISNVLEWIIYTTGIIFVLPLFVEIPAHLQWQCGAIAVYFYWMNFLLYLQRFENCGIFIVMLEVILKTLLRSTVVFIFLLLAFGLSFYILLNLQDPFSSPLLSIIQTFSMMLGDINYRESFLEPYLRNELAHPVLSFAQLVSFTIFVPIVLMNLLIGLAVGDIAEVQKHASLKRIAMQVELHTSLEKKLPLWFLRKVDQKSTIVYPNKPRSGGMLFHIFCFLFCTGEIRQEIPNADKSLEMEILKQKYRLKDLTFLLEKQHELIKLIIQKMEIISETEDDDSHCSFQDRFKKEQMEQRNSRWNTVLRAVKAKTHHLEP
The target in assay [2] is T2, Transient receptor potential cation channel subfamily A member 1 (Mus musculus, UniProt Q8BLA8). Description: Antagonist activity at full length mouse TRPA1 transfected in HEK293F cells assessed as blockade of MO-induced TRPA1 channel activation by measuring Ca2+ influx in presence of 30 uM MO by FLIPR calcium assay.
T2 sequence (Q8BLA8 whole entry): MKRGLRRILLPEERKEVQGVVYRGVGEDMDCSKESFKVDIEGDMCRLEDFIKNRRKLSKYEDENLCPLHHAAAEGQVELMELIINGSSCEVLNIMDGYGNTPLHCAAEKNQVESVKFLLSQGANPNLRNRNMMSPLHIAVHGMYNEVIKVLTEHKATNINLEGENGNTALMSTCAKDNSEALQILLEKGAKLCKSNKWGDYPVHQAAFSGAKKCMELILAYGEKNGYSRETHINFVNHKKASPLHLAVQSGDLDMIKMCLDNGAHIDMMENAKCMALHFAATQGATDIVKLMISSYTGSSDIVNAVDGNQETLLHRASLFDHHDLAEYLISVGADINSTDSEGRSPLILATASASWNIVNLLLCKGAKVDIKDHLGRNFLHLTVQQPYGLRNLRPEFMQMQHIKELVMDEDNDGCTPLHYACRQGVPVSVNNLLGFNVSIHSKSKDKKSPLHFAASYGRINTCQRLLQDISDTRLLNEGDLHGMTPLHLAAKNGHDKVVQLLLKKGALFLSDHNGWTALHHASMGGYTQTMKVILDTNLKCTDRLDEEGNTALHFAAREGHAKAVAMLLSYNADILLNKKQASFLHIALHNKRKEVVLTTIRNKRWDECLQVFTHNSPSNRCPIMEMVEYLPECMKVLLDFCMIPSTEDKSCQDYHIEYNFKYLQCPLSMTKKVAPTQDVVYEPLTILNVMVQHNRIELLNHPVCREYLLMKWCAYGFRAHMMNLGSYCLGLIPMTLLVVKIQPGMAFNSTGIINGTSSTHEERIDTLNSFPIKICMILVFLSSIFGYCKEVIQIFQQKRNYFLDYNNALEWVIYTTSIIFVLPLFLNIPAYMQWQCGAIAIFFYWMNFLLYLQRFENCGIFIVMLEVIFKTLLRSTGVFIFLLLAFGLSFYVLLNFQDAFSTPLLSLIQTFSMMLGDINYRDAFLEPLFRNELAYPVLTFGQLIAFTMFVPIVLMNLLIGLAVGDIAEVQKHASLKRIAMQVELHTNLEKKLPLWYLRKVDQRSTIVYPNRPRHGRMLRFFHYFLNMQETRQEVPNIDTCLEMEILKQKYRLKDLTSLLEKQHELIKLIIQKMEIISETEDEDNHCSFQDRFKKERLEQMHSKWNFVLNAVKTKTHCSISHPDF
Assay [3] concerns the target T3, Transient receptor potential cation channel subfamily A member 1 (Rattus norvegicus, UniProt Q6RI86). Description: Antagonist activity at full length rat TRPA1 transfected in HEK293F cells assessed as blockade of MO-induced TRPA1 channel activation by measuring Ca2+ influx in presence of 30 uM MO by FLIPR calcium assay.
The target in assay [4] is T4, Transient receptor potential cation channel subfamily A member 1 (Macaca mulatta, UniProt A0A1D5QMT1). Description: Antagonist activity at full length rhesus monkey TRPA1 transfected in HEK293F cells assessed as blockade of MO-induced TRPA1 channel activation by measuring Ca2+ influx in presence of 120 uM MO by FLIPR calcium assay.
T4 sequence (A0A1D5QMT1 whole entry): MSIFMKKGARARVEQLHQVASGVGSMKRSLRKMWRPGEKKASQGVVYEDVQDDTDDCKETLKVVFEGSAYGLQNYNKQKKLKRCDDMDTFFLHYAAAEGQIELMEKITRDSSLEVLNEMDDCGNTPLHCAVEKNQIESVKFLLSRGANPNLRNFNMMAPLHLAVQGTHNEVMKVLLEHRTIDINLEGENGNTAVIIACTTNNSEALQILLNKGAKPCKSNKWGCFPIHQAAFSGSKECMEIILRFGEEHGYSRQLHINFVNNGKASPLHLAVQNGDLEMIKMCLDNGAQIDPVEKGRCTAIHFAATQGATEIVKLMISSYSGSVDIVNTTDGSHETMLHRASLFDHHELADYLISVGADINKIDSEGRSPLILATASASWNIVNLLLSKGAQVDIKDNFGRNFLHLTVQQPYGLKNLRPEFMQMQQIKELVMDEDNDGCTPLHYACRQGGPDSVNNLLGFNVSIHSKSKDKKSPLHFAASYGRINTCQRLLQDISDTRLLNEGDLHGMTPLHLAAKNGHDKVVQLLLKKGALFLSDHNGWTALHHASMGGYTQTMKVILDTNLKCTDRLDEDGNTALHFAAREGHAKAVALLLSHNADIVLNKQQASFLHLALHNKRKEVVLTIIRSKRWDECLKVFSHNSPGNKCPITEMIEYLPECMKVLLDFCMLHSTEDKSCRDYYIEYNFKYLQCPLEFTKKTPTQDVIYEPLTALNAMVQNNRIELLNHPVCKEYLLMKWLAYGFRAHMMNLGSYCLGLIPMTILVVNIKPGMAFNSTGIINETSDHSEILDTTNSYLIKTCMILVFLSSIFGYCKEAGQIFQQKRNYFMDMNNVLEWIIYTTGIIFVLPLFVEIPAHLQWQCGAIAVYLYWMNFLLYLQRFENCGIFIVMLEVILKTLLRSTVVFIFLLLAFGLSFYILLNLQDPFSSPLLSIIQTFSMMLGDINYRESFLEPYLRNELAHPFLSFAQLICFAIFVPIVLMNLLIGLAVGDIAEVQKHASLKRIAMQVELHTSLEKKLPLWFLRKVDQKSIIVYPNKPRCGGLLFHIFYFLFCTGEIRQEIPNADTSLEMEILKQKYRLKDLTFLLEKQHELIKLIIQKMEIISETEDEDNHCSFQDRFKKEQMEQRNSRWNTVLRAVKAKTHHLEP
Assay [5] has as its target Transient receptor potential cation channel subfamily A member 1 (Mus musculus) (UniProt Q8BLA8). Description: Agonist activity at full length mouse TRPA1 transfected in HEK293F cells assessed as increase in Ca2+ influx by FLIPR calcium assay relative to control. To be noted: filed as agonist.
Assay [6] deals with T4, Transient receptor potential cation channel subfamily A member 1. Description: Agonist activity at rhesus monkey TRPA1 transfected in HEK293F cells assessed as increase in Ca2+ influx by FLIPR calcium assay.
Assay [7] addresses T3, Transient receptor potential cation channel subfamily A member 1. In words: Agonist activity at full length rat TRPA1 transfected in HEK293F cells assessed as increase in Ca2+ influx by FLIPR calcium assay.
Assay [8] deals with T1, Transient receptor potential cation channel subfamily A member 1. Description: Agonist activity at full length human TRPA1 transfected in HEK293F cells assessed as increase in Ca2+ influx by FLIPR calcium assay.
Assay [9] has as its target T2, Transient receptor potential cation channel subfamily A member 1. In words: Agonist activity at full length mouse TRPA1 transfected in HEK293F cells assessed as increase in Ca2+ influx by FLIPR calcium assay.
Assay [10] concerns the target Transient receptor potential cation channel subfamily A member 1 (Rattus norvegicus) (UniProt Q6RI86). In words: Agonist activity at full length rat TRPA1 transfected in HEK293F cells assessed as increase in Ca2+ influx by FLIPR calcium assay relative to MO. To be noted: filed as agonist.
The target of assay [11] is T1, Transient receptor potential cation channel subfamily A member 1. Description: Agonist activity at full length human TRPA1 transfected in HEK293F cells assessed as increase in Ca2+ influx by FLIPR calcium assay relative to MO. The settings on record: filed as agonist.
For assay [12] the target is unchanged. Description: Agonist activity at full length human TRPA1 transfected in HEK293F cells assessed as increase in Ca2+ influx in presence of 30 to 1000 uM MO by FLIPR calcium assay.
Assay [13] concerns the target T4, Transient receptor potential cation channel subfamily A member 1. In words: Activation of full length rhesus monkey TRPA1 transfected in HEK293F cells assessed as 120 uM of MO-induced current Blockade at -60 mV by whole-cell recording analysis.
The target is the same in assay [14]. In words: Activation of full length rhesus monkey TRPA1 transfected in HEK293F cells assessed as 1 mM of MO-induced current Blockade at -60 mV by whole-cell recording analysis.
The target in assay [15] is T5, Transient receptor potential cation channel subfamily A member 1 (Macaca mulatta) (UniProt A0A1D5QMT1). Description: Agonist activity at rhesus monkey TRPA1 transfected in HEK293F cells assessed as increase in Ca2+ influx by FLIPR calcium assay relative to MO. To be noted: filed as agonist.
T5 sequence (A0A1D5QMT1 as listed by the source): as the sequence (A0A1D5QMT1 whole entry) above
The target of assay [16] is Transient receptor potential cation channel subfamily A member 1 (Rattus norvegicus) (UniProt Q6RI86). In words: Agonist activity at full length rat TRPA1 transfected in HEK293F cells assessed as blockade of MO-induced TRPA1 channel activation by measuring Ca2+ influx in presence of 30 uM MO by FLIPR calcium assay. The settings on record: filed as agonist.
Transient receptor potential cation channel subfamily A member 1 (Rattus norvegicus), sequence (Q6RI86 whole entry): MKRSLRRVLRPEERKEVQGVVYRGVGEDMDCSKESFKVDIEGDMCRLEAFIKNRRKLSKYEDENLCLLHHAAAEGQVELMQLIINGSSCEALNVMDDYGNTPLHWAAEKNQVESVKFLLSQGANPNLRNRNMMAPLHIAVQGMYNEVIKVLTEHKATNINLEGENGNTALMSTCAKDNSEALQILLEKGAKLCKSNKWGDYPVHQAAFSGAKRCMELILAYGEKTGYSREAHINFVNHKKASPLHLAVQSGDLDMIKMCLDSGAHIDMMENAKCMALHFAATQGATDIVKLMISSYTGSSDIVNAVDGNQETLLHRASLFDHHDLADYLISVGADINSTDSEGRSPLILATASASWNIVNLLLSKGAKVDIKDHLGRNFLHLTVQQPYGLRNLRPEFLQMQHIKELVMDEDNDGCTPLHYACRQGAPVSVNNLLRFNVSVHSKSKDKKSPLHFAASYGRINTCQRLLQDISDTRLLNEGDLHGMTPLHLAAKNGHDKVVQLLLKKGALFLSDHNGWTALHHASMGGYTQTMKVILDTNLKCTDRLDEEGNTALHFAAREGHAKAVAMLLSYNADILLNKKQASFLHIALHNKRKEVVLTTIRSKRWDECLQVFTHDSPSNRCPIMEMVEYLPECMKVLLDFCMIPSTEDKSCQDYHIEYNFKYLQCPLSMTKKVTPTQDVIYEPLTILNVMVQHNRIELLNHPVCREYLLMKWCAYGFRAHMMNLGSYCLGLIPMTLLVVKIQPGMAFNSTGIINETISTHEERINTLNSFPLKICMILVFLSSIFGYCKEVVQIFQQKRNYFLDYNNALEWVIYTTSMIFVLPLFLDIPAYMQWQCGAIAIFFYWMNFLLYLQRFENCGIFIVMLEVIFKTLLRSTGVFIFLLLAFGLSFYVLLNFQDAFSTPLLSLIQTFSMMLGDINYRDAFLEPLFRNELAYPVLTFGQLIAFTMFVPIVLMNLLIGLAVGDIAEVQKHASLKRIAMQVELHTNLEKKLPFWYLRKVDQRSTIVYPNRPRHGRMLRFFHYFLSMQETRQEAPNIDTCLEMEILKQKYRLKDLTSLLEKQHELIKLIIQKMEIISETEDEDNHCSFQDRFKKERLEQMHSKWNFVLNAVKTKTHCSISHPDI
In assay [17] the target is Transient receptor potential cation channel subfamily A member 1 (Mus musculus) (UniProt Q8BLA8). Description: Agonist activity at full length mouse TRPA1 transfected in HEK293F cells assessed as blockade of MO-induced TRPA1 channel activation by measuring Ca2+ influx in presence of 30 uM MO by FLIPR calcium assay. The settings on record: filed as agonist.
Transient receptor potential cation channel subfamily A member 1 (Mus musculus), sequence (Q8BLA8 whole entry): as the sequence (Q8BLA8 whole entry) above
Assay [18] addresses T5, Transient receptor potential cation channel subfamily A member 1 (Macaca mulatta). Description: Antagonist activity at rhesus monkey TRPA1 transfected in HEK293F cells assessed as increase in Ca2+ influx by FLIPR calcium assay. To be noted: filed as antagonist.
Assay [19] has as its target T1, Transient receptor potential cation channel subfamily A member 1. In words: Antagonist activity at full length human TRPA1 transfected in HEK293F cells assessed as increase in Ca2+ influx by FLIPR calcium assay. The settings on record: filed as antagonist.

Active and inactive are the calls of the source. The calls are words filed in the database; no cut-off is given here.

T3 sequence (Q6RI86 whole entry): as the sequence (Q6RI86 whole entry) above

Take `CC(=C\c1ccc(Cl)cc1)/C(C)=N/O` [AP18 5]: the 50% inhibitory concentration (IC50) in assay [1] turned out to be 9.1 µM; in assay [2], 33 µM; in assay [3], 39.9 µM; in assay [4], 56.4 µM.

Consider `NC(=O)c1cccc(-c2cccc(OC(=O)NC3CCCCC3)c2)c1` [URB-597], for which the figures for the Emax in assay [5], in assay [10] and in [11] were 77%, 72% and 85%, respectively. Also, the concentration for a half-maximal effect (EC50) is over 100 µM in assay [6], 129 µM in [7], 7.5 µM in assay [8] and 74.4 µM in assay [9].

`CC1CCC(C(C)C)C(O)C1` (configuration not stated) [MENTHOL]: the Emax in assay [5] is 40%; in [10], 41%; in [11] it was 80%. Further, the concentration giving a half-maximal response (EC50) in assay [6] is over 300 µM; in [7] it was 7.1 µM; in assay [8], 278 µM; in assay [9], 5.2 µM. For the same compound, the IC50 was over 1000 µM in [1], 951 µM in assay [2], 511 µM in assay [3] and over 1000 µM in assay [4]. In addition, the outcome in [12] was inactive.

`CCCCCC(O)/C=C/C=O` (configuration not stated) [4-HYDROXYNON-2-ENAL]: the values for the Emax in assay [5], in [10] and in [11] were 72%, 76% and 80%, respectively. For the same compound, the EC50 in assay [6] was over 100 µM; in [7] it was 6 µM; in assay [8], 9.9 µM; in assay [9], 6.6 µM.

Consider `CCC(=N\O)/C(C)=C/c1ccc(F)cc1` [A-079], for which the IC50 in assay [13] was 0.6 µM; in [2], 0.75 µM; in assay [3], 0.33 µM; in assay [14] it was 1.63 µM; in [4], 0.6 µM.

`CCCCC/C=C/C=C1/C(=O)C=C[C@@H]1C/C=C\CCCC(=O)O`: the maximal effect (Emax) in assay [5] stood at 65%; in [10], 70%; in assay [11], 75%. Moreover, the EC50 in [6] was over 100 µM; in [7], 19.9 µM; in [8], 40.4 µM; in assay [9] it was 56.4 µM.

Turning to `CC(C)=CCC/C(C)=C/CC/C(C)=C/CSc1ccccc1C(=O)O` [SALIRASIB], the Emax in assay [5] is 105%; in [15] it was 112%; in [10], 89%; in [11], 106%. Moreover, the EC50 in [6] amounted to 167 µM; in assay [7], 102 µM; in assay [8] it was 4.9 µM; in [9], 85.5 µM.

`Cn1c(=O)c2c(ncn2C)n(C)c1=O` [CAFFEINE]: the values for the maximal effect (Emax) in [5] and in [10] were 52% and 44%, respectively. For the same compound, the IC50 in assay [1] was 988 µM; in assay [4], over 1000 µM. Further, the result in [16], in assay [17], in assay [18] and in assay [19] was Active. Besides, the EC50 in assay [7] is 95.9 µM; in assay [9], 61.8 µM.

Consider `CC(C)c1ccc(NC(=O)Cn2cnc3c2c(=O)n(C)c(=O)n3C)cc1`, for which the half-inhibitory concentration (IC50) was determined as 7.4 µM in [1], 6.8 µM in [2], 7.6 µM in [3] and 7.3 µM in assay [4].

With `O=C/C=C/c1ccccc1`, the Emax in assay [5] was determined as 71%; in assay [15], 84%; in [10] it was 89%; in assay [11], 81%. For the same compound, the half-maximal effective concentration (EC50) came out at 23.9 µM in [6], 5.4 µM in assay [7], 12.5 µM in [8] and 3.4 µM in [9].
